Here are results for 18 compounds from patent US10829458B2 (Araxes Pharma LLC, priority 2015, dated 2020).

Each structure is given as a SMILES string.

The target in the assay is T1, KRAS G12C 1-169, his-tagged protein, GDP-loaded (Homo sapiens, UniProt P01116, G12C).
T1 construct: KRAS G12C 1-169, his-tagged protein, GDP-loaded
Kind of assay: Biochemical assay: covalent modification of KRAS G12C measured by mass spectrometry (RapidFire/TOF or Q-Exactive). As to conditions: covalent binding to KRAS G12C; compounds of structure (I). As for the experimental part: Test compounds were prepared as 10 mM stock solutions in DMSO (Fisher cat #BP-231-100). KRAS G12C 1-169, his-tagged protein, GDP-loaded was diluted to 2 μm in buffer (20 mM Hepes, 150 mM NaCl, 1 mM MgCl2). Compounds were tested for activity as follows:
Compounds were diluted to 50× final test concentration in DMSO in 96-well storage plates. Compound stock solutions were vortexed before use and observed carefully for any sign of precipitation. Dilutions were as follow: • For 100 μM final compound concentration, compounds were diluted to 5000 μM (5 μl 10 mM compound stock+5 μl DMSO and mixed well by pipetting. • For 30 μM final compound concentration, compounds were diluted to 1500 μM (3 μl 10 mM compound stock+17p DMSO) and mixed well by pipetting. • For 10 μM final compound concentration, compounds were diluted to 500 μM (2 μl 10 mM compound stock+38p DMSO) and mixed well by pipetting. 49p of the stock protein solution was added to each well of a 96-well PCR plate (Fisher cat #1423027). 1 μl of the diluted 50× compounds were added to appropriate wells in the PCR plate using 12-channel pipettor. Reactions were mixed carefully and thoroughly by pipetting up/down with a 200·1 multi-channel pipettor. The plate was sealed well with aluminum plate seal, and stored in drawer at room temperature for 30 min, 2 hour or 24 hrs. 5·1 of 2% formic acid (Fisher cat #A117) in DI H2O was then added to each well followed by mixing with a pipette. The plate was then resealed with aluminum seal and stored on dry ice until analyzed as described below.
The above described assays were analyzed by mass spectrometry according to one of the following two procedures:
The MS instrument is set to positive polarity, 2 GHz resolution, and low mass (1700) mode and allowed to equilibrate for 30 minutes. The instrument is then calibrated, switched to acquisition mode and the appropriate method loaded.
After another 30 minute equilibration time, a blank batch (i.e., buffer) is run to ensure equipment is operating properly. The samples are thawed at 37° C. for 10 minutes, briefly centrifuged, and transfer to the bench top. Wells A1 and H12 are spiked with 1 uL 500 uM internal standard peptide, and the plates centrifuged at 2000×g for 5 minutes. The method is then run and masses of each individual well recorded.
The masses (for which integration data is desired) for each well are pasted into the platemap and exported from the analysis. Masses for the internal standards are exported as well. The data at 50 ppm is extracted for the +19 charge state, and identity of well A1 is assigned using the internal standard spike and integrated. Peak data is exported as a TOF list and the above steps are repeated individually, for the +20, 21, 22, 23, 24, and 25 charge states.
The masses and peak intensities of KRAS G12C protein species were measured using a Dionex RSLCnano system (Thermo Scientific) connected to a Q Exactive Plus mass spectrometer (Thermo Scientific).
[…] of sample was each loaded onto a Aeris™ 3.6 μm WIDEPORE C4 200 Å, LC Column 50×2.1 mm column maintained at 40° C. at a flow rate of 600 μl min^−1 with […] (0.1% formic acid in acetonitrile). The liquid chromatography conditions were 20% solvent B for 1 min, 20% to 60% solvent B for 1.5 min, 60% to 90% solvent for 0.5 min, 90% solvent B for 0.2 min, 90% to 20% solvent B for 0.2 min, and then equilibrated for 1.6 min before the following sample injection. The flow rate was maintained at 600 μl min^−1 throughout the sample analysis.
The mass spectrometer was operated in profile mode at a resolution of 17500, 5 microscans, using 50 msec max injection time and an AGC target of 1e6, and a full mass range from 800-1850 m/z was recorded. The HCD trapping gas was optimized for maximum sensitivity for intact proteins. […]
As for `C=CC(=O)N1CCN(c2nc(OCCN3CCOCC3)nc3c(F)c(-c4c(O)cccc4F)c(Cl)cc23)CC1` [Example I-10, 1-(4-(6-chloro-8-fluoro-7-(2-fluoro-6-hydroxyphenyl)-2-(2-morpholino-ethoxy)quinazolin-4-yl)piperazin-1-yl)prop-2-en-1-one], the Binding % entry is on record as “+++ (+++ indicates binding activity greater than 90%)”.

For the compound `C=CC(=O)N1CCN(c2nc(C#N)nc3c(F)c(-c4c(C)ccc5[nH]ncc45)c(Cl)cc23)CC1` [Example I-11, 4-(4-acryloyl-piperazin-1-yl)-6-chloro-8-fluoro-7-(5-methyl-1H-indazol-4-yl)quinazoline-2-carbonitrile], the Binding % result is on record as “+++ (+++ indicates binding activity greater than 90%)”.

On to `C=CC(=O)N1CCN(c2nc(NC3CCN(CC(F)(F)F)CC3)nc3c(F)c(-c4c(C)ccc5[nH]ncc45)c(Cl)cc23)CC1` [Example I-12, 1-(4-(6-chloro-8-fluoro-7-(5-methyl-1H-indazol-4-yl)-2-(1-(2,2,2-trifluoroethyl)piperidin-4-ylamino)quinazolin-4-yl)piperazin-1-yl)prop-2-en-1-one], for which the Binding % result is on record as “++ (++ indicates binding activity from 50 to 90%)”.

Take `C=CC(=O)N1CCN(c2nc(OC3CCOCC3)nc3c(F)c(-c4c(C)ccc5[nH]ncc45)c(Cl)cc23)CC1` [Example I-13, 1-(4-(6-chloro-8-fluoro-7-(5-methyl-1H-indazol-4-yl)-2-(tetrahydro-2H-pyran-4-yloxy)quinazolin-4-yl)piperazin-1-yl)prop-2-en-1-one]: the Binding % result is listed as “+++ (+++ indicates binding activity greater than 90%)”.

Regarding `C=CC(=O)N1CCN(c2nc(OCCN3CCOCC3)nc3c(F)c(-c4cc(O)cc5ccccc45)c(Cl)cc23)CC1` [Example I-14, 1-(4-(6-chloro-8-fluoro-7-(3-hydroxy-naphthalen-1-yl)-2-(2-morpholino-ethoxy)quinazolin-4-yl)piperazin-1-yl)prop-2-en-1-one], the Binding % entry is on record as “+++ (+++ indicates binding activity greater than 90%)”.

For `C=CC(=O)N1CCN(c2nc(OCC3CCOCC3)nc3c(F)c(-c4c(C)ccc5[nH]ncc45)c(Cl)cc23)CC1` [Example I-15, 1-(4-(6-chloro-8-fluoro-7-(5-methyl-1H-indazol-4-yl)-2-((tetrahydro-2H-pyran-4-yl)methoxy)quinazolin-4-yl)piperazin-1-yl)prop-2-en-1-one], the Binding % result is reported as “+++ (+++ indicates binding activity greater than 90%)”.

In the case of `C=CC(=O)N1CCN(c2nc(OCCN3CCCC3=O)nc3c(F)c(-c4c(O)cccc4F)c(Cl)cc23)CC1` [Example I-16, 1-(2-(4-(4-acryloyl-piperazin-1-yl)-6-chloro-8-fluoro-7-(2-fluoro-6-hydroxyphenyl)quinazolin-2-yloxy)ethyl) pyrrolidin-2-one], the Binding % result is “+++ (+++ indicates binding activity greater than 90%)”.

`C=CC(=O)N1CCN(c2nc(SCCN3CCOCC3)nc3c(F)c(-c4c(O)cccc4F)c(Cl)cc23)CC1` [Example I-17, 1-(4-(6-chloro-8-fluoro-7-(2-fluoro-6-hydroxyphenyl)-2-(2-morpholino-ethylthio)quinazolin-4-yl)piperazin-1-yl)prop-2-en-1-one]: the Binding % entry is “++ (++ indicates binding activity from 50 to 90%)”.

Consider `C=CC(=O)N1CCN(c2nc(OC3CCOCC3)nc3c(F)c(-c4c(O)cccc4F)c(Cl)cc23)CC1` [Example I-18, 1-(4-(6-chloro-8-fluoro-7-(2-fluoro-6-hydroxyphenyl)-2-(tetrahydro-2H-pyran-4-yloxy)quinazolin-4-yl)piperazin-1-yl)prop-2-en-1-one], for which the Binding % result is on record as “+++ (+++ indicates binding activity greater than 90%)”.

Consider `C=CC(=O)N1CCN(c2nc(OC3COC3)nc3c(F)c(-c4c(O)cccc4F)c(Cl)cc23)CC1` [Example I-19, 1-(4-(6-chloro-8-fluoro-7-(2-fluoro-6-hydroxyphenyl)-2-(oxetan-3-yloxy)quinazolin-4-yl)piperazin-1-yl)prop-2-en-1-one], for which the Binding % result is “++ (++ indicates binding activity from 50 to 90%)”.

Consider `C=CC(=O)N1CCN(c2nc(NC3CCN(C4CC4)CC3)nc3c(F)c(-c4c(C)ccc5[nH]ncc45)c(Cl)cc23)CC1` [Example I-20, 1-(4-(6-chloro-2-(1-cyclopropyl-piperidin-4-ylamino)-8-fluoro-7-(5-methyl-1H-indazol-4-yl)quinazolin-4-yl)piperazin-1-yl)prop-2-en-1-one], for which the Binding % result is “+++ (+++ indicates binding activity greater than 90%)”.

With `C=CC(=O)N1CCN(c2nc(NC3CCN(CC(F)(F)F)CC3)nc3c(F)c(-c4c(O)cccc4F)c(Cl)cc23)CC1` [Example I-21, 1-(4-(6-chloro-8-fluoro-7-(2-fluoro-6-hydroxyphenyl)-2-(1-(2,2,2-trifluoroethyl)piperidin-4-ylamino)quinazolin-4-yl)piperazin-1-yl)prop-2-en-1-one], the Binding % result is given as “+ (+ indicates binding activity up to 50%)”.

Regarding `C=CC(=O)N1CCN(c2nc(OC3CCN(C)C3)nc3c(F)c(-c4c(O)cccc4F)c(Cl)cc23)CC1` (stereo not drawn) [Example I-22, 1-(4-(6-chloro-8-fluoro-7-(2-fluoro-6-hydroxyphenyl)-2-(1-methyl-pyrrolidin-3-yloxy)quinazolin-4-yl)piperazin-1-yl)prop-2-en-1-one], the Binding % entry was “++ (++ indicates binding activity from 50 to 90%)”.

With `C=CC(=O)N1CCN(c2nc(N3CC(N4CCC(F)(F)CC4)C3)nc3c(F)c(-c4c(O)cccc4F)c(Cl)cc23)CC1` [Example I-23, 1-(4-(6-chloro-2-(3-(4,4-difluoro-piperidin-1-yl)azetidin-1-yl)-8-fluoro-7-(2-fluoro-6-hydroxyphenyl)quinazolin-4-yl)piperazin-1-yl) prop-2-en-1-one], the Binding % result is given as “++ (++ indicates binding activity from 50 to 90%)”.

Consider `C=CC(=O)N1CCN(c2nc(N3CC(N4CCOCC4)C3)nc3c(F)c(-c4c(O)cccc4F)c(Cl)cc23)CC1` [Example I-24, 1-(4-(6-chloro-8-fluoro-7-(2-fluoro-6-hydroxyphenyl)-2-(3-morpholino-azetidin-1-yl)quinazolin-4-yl)piperazin-1-yl)prop-2-en-1-one], for which the Binding % entry is listed as “+++ (+++ indicates binding activity greater than 90%)”.

As to `C=CC(=O)N1CCN(c2nc(Oc3cnn(C)c3)nc3c(F)c(-c4c(O)cccc4F)c(Cl)cc23)CC1` [Example I-25, 1-(4-(6-chloro-8-fluoro-7-(2-fluoro-6-hydroxyphenyl)-2-(1-methyl-1H-pyrazol-4-yloxy)quinazolin-4-yl)piperazin-1-yl)prop-2-en-1-one], the Binding % entry is listed as “+++ (+++ indicates binding activity greater than 90%)”.

On to `C=CC(=O)N1CCN(c2nc(OC3CCN(CC(F)(F)F)C3)nc3c(F)c(-c4c(O)cccc4F)c(Cl)cc23)CC1` (stereo not drawn) [Example I-26, 1-(4-(6-chloro-8-fluoro-7-(2-fluoro-6-hydroxyphenyl)-2-(1-(2,2,2-trifluoroethyl)pyrrolidin-3-yloxy)quinazolin-4-yl)piperazin-1-yl)prop-2-en-1-one], for which the Binding % result was “+++ (+++ indicates binding activity greater than 90%)”.

In the case of `C=CC(=O)N1CCN(c2nc(OC3CCN(CC(F)(F)F)CC3)nc3c(F)c(-c4c(O)cccc4F)c(Cl)cc23)CC1` [Example I-27, 1-(4-(6-chloro-8-fluoro-7-(2-fluoro-6-hydroxyphenyl)-2-(1-(2,2,2-trifluoroethyl)piperidin-4-yloxy)quinazolin-4-yl)piperazin-1-yl)prop-2-en-1-one], the Binding % entry was “+++ (+++ indicates binding activity greater than 90%)”.
